From patent US8148391B2 (Cephalon, Inc., priority 2006, dated 2012)
pIC50: −log10 of the molar value. Read-outs that look alike come from different tables or passages of the source.

Columns and labels:
[1] = molecular target: T1, baculovirus-expressed ALK (Homo sapiens, UniProt Q9UM73); experiment: ALK Kinase Assay (ELISA-type, time-resolved fluorescence); assay type: biochemical
T1 construct: host or cells: baculovirus expression system
Outline: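 Plates coated with phospholipase C-γ substrate (10 μg/mL in TBS); reaction started with 30 ng/ml ALK and run 15 min at 37° C. Phosphorylated substrate detected with Eu-N1-labeled PT66 antibody. IC50 from sigmoidal variable-slope fit of percent inhibition vs log concentration.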

[2] = molecular target: T2, c-Met (cytoplasmic domain) (Homo sapiens, UniProt P08581); experiment: c-Met Kinase Assay (same methods as for ALK, with modifications); assay type: biochemical
T2 construct: 10 ng/mL c-Met (cytoplasmic domain, Invitrogen Corporation #PV3143); purchased Invitrogen Corporation PV3143
Outline: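 Europium-labeled PT66 antibody (Eu-N1) detects substrate phosphorylation on wells coated with phospholipase C-γ at 10 μg/mL. The kinase, the cytoplasmic domain of c-Met at 10 ng/mL, starts the reaction, which proceeds 15 minutes at 37° C.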

[3] = 1 μM ATP (Km level), read-out: ALK Activity (ALK Kinase Inhibition, IC50)
[4] = 1 μM ATP (Km level), read-out: cMet Activity (c-Met Kinase Inhibition, IC50)
[5] = 1 μM ATP (Km level), 30 ng/ml ALK, 37° C., 15 minutes, read-out: ALK Activity (ALK kinase inhibition, IC50 class)
[6] = 1 μM ATP (Km level), 10 ng/mL c-Met, read-out: cMet Activity (c-Met kinase inhibition, IC50 class)

T2 sequence (P08581 956-1390 limits assumed): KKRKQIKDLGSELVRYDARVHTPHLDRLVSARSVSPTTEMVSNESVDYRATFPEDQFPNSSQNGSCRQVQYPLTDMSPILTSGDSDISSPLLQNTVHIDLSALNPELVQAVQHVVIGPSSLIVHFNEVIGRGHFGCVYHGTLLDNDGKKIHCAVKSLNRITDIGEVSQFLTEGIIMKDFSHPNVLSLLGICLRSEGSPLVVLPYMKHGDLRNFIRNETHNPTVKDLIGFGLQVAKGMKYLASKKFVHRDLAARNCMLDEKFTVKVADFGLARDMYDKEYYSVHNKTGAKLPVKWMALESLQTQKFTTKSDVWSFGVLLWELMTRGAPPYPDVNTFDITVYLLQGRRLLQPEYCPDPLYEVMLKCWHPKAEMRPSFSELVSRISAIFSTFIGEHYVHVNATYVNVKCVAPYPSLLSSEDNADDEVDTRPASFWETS
T1 sequence (Q9UM73 19-1620): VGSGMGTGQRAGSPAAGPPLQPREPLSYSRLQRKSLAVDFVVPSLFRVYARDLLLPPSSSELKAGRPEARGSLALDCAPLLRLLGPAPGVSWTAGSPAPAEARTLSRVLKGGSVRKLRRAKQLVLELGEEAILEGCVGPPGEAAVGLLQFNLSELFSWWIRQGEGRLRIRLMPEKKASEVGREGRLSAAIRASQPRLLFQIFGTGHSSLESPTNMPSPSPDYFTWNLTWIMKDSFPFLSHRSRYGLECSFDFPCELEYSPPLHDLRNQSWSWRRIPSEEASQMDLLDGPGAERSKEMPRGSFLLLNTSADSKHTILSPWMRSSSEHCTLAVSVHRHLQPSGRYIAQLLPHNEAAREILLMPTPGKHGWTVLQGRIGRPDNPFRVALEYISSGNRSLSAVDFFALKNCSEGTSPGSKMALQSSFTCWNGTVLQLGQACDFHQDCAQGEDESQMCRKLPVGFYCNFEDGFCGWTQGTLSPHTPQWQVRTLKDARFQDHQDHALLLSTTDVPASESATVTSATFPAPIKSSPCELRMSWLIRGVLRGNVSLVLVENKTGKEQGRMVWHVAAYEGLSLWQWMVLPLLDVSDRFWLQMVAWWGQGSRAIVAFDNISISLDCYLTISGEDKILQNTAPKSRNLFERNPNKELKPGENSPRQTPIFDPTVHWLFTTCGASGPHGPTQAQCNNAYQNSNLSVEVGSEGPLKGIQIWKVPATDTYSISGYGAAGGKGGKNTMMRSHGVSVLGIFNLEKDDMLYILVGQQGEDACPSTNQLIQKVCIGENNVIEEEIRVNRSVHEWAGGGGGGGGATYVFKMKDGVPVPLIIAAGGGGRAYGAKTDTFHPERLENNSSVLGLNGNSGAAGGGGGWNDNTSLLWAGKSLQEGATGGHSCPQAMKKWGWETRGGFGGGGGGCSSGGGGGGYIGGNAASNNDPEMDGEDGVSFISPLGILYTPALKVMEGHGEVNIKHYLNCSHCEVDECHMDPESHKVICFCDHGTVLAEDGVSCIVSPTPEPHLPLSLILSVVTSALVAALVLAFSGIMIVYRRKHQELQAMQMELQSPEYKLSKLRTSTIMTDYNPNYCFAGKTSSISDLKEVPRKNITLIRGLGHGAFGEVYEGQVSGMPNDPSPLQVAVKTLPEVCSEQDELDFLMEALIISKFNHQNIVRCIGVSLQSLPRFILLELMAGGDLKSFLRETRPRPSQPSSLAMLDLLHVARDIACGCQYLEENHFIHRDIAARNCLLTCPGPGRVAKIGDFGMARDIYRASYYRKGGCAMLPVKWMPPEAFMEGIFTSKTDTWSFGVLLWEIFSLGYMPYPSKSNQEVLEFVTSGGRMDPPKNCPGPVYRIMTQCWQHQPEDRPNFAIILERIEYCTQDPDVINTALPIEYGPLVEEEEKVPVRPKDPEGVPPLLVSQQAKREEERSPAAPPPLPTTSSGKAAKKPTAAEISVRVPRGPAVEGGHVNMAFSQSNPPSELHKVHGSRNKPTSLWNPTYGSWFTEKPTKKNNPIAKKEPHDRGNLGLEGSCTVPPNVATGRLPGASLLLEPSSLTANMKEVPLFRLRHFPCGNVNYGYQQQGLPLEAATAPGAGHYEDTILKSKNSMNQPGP

pIC50 [1, 3]	pIC50 [2, 4]	pIC50 [1, 5]	pIC50 [2, 6]	Molecule	also measured
		5.00 to 6.00	5.00 to 6.00	COCCN1CCc2ccc(Nc3ncc(Cl)c(Nc4c(F)cccc4OCC4CCOC4)n3)cc2CC1 (stereo not shown) [Example 1275, 5-Chloro-N(4)-[2-fluoro-6-(tetrahydro-furan-3-ylmethoxy)-phenyl]-N(2)-[3-(2-methoxy-ethyl)-2,3,4,5-tetrahydro-1H-3-benzazepin-7-yl]-pyrimidine-2,4-diamine]	
		> 7.00	5.00 to 6.00	CC1(C)CCC(=O)Nc2ccc(Nc3ncc(Cl)c(Nc4c(F)cccc4S(C)(=O)=O)n3)cc21 [Example 1260, 7-[5-Chloro-4-(2-fluoro-6-methanesulfonyl-phenylamino)-pyrimidin-2-ylamino]-5,5-dimethyl-1,3,4,5-tetrahydro-1-benzazepin-2-one]	
> 7.00	> 7.00			CNC(=O)c1ccccc1Nc1nc(Nc2ccc3c(c2)NC(=O)CCC3)ncc1Cl [Example 513, 2-[5-Chloro-2-(2-oxo-2,3,4,5-tetrahydro-1H-benzo[b]azepin-8-ylamino)-pyrimidin-4-ylamino]-N-methyl benzamide]	
		> 7.00	5.00 to 6.00	COc1cc2c(cc1Nc1ncc(Cl)c(Nc3ccccc3S(=O)(=O)N3CCCC3)n1)CCN(Cc1ncco1)CC2 [Example 1191, 5-Chloro-N*2*-(8-methoxy-3-oxazol-2-ylmethyl-2,3,4,5-tetrahydro-1H-benzo[d]azepin-7-yl)-N*4*-[2-(pyrrolidine-1-sulfonyl)-phenyl]-pyrimidine-2,4-diamine]	

More lines, now with the values behind:

Molecule	pIC50 [1, 3]	pIC50 [2, 4]	pIC50 [1, 5]	pIC50 [2, 6]	also measured
CC(C)S(=O)(=O)c1ccccc1Nc1nc(Nc2cccc3c2OCCCC3(C)C)ncc1Cl [Example 878, 5-Chloro-N*2*-(5,5-dimethyl-2,3,4,5-tetrahydro-benzo[b]oxepin-9-yl)-N*4*-[2-(propane-2-sulfonyl)-phenyl]-pyrimidine-2,4-diamine]	6.00 to 7.00	< 5.00			
CNC(=O)c1cccc(Nc2nc(Nc3ccc4c(c3)C(C)(C)CCC(=O)N4)ncc2Cl)c1 [Example 672, 3-[5-Chloro-2-(5,5-dimethyl-2-oxo-2,3,4,5-tetrahydro-1H-benzo[b]azepin-7-ylamino)-pyrimidin-4-ylamino]-N-methyl-benzamide]	6.00 to 7.00	5.00 to 6.00			
(1S,2S,4R)-3-{5-Chloro-2-[3-(2-dimethylamino-acetylamino)-1-ethyl-6-methoxy-2-oxo-2,3,4,5-tetrahydro-1H-benzo[b]azepin-7-ylamino]-pyrimidin-4-ylamino}-bicyclo[2.2.1]hept-5-ene-2-carboxylic acid amide [Example 1353]			> 7.00	< 5.00	
CNC(=O)c1cccc(F)c1Nc1nc(Nc2ccc3c(c2)CCN(C(=O)C2COCCO2)CC3)ncc1Cl (stereo not shown) [Example 639, 2-{5-Chloro-2-[3-([1,4]dioxane-2-carbonyl)-2,3,4,5-tetrahydro-1H-benzo[d]azepin-7-ylamino]-pyrimidin-4-ylamino}-3-fluoro-N-methyl-benzamide]	> 7.00	> 7.00			
CC(=O)N(C)Cc1ccccc1Nc1nc(Nc2ccc3c(c2)CCOC(=O)N3C)ncc1Cl [Example 1792, N-{2-[5-Chloro-2-(5-methyl-6-oxo-5,6,8,9-tetrahydro-7-oxa-5-aza-benzocyclohepten-2-ylamino)-pyrimidin-4-ylamino]-benzyl}-N-methyl-acetamide]					pIC50 ([1]; ALK kinase inhibition, 1 μM ATP, read-out: ALK Activity): 5.00 to 6.00; pIC50 ([2]; c-Met kinase inhibition, 1 μM ATP, read-out: cMet Activity): 5.00 to 6.00
CNC(=O)c1ccccc1Nc1nc(Nc2ccc3c(c2)NCCNC3=O)ncc1Cl [Example 411, 2-[5-Chloro-2-(5-oxo-2,3,4,5-tetrahydro-1H-benzo[e][1,4]diazepin-8-ylamino)-pyrimidin-4-ylamino]-N-methylbenzamide]					pIC50 ([1]; ALK kinase inhibition, 1 μM ATP (Km level), read-out: ALK Activity): > 7.00; pIC50 ([2]; c-Met kinase inhibition, 1 μM ATP (Km level), read-out: cMet Activity): > 7.00
CCN1CCc2ccc(Nc3ncc(Cl)c(Nc4ccccc4OCC#N)n3)cc2CC1 [Example 928, {2-[5-Chloro-2-(3-ethyl-2,3,4,5-tetrahydro-1H-benzo[d]azepin-7-ylamino)-pyrimidin-4-ylamino]-phenoxy}-acetonitrile]	> 7.00	> 7.00			
